The values below come from patent US12319689B2, “Methyl- and trifluoromethyl-containing disubstituted sulfonamide selective BCL-2 inhibitor” (CHIA TAI TIANQING PHARMACEUTICAL GROUP CO., LTD., priority 2019, dated 2025).

One data set has as its system RS4;11 cells. As to the kind of experiment: Inhibition of proliferation of RS4;11 human acute lymphocytic leukemia cells (CCK-8). It is filed as cell-based. As to conditions: 72 h compound exposure, CCK-8, 5% serum. On the procedure: RS4;11 cells (from ATCC) in logarithmic growth phase and good cell condition were added to a centrifuge tube and centrifuged at 1500 rpm for 3 min in a low speed centrifuge. The supernatant was discarded, and 5 mL of complete medium (RPMI basic medium+10% FBS) was added using a pipette for cell resuspension. The cells were counted using a cell counter, diluted with complete medium to a cell density of 2×10^5 cells/mL, and an equivalent amount of RPMI basic medium was added to adjust the serum concentration to 5% and the cell density to 1×10^5 cells/mL for plate seeding. The cells were seeded on a 96-well plate at 100 μL/well using a pipettor, and incubated in an incubator at 37° C., 5% CO2 with saturated humidity. After 24 h of incubation, compounds were loaded using a nanoliter pipettor, 2 duplicate wells were set for each concentration, and cells without compound were used as negative controls. […] Inhibition rate (%)=(mean value of negative control group−mean value of experimental group)/(mean value of negative control group−mean value of blank group)×100%. A dose-response curve was fitted by four-parameter analysis, with the logarithm of compound concentration serving as abscissa and inhibition rate serving as ordinate, so that IC50 was calculated (Table 1).

Data set [1] relates to RS4;11 human acute lymphoblastic leukemia subcutaneous xenograft tumors. The data set is described as follows: RS4;11 human acute lymphoblastic leukemia mouse subcutaneous tumor xenograft model. It is filed as in vivo, NOD/SCID mice. As to conditions: 25 mg/kg single intragastric dose; Day 12 after the end of administration. The method, then:
SPF female NOD/SCID mice (Shanghai Lingchang Biotech Co., Ltd.) were inoculated subcutaneously at the right side armpit with 1×10^7 RS4;11 cells (ATCC). When the mean tumor volume reached about 180 mm^3, the mice were divided into 3 groups according to the tumor size: vehicle, compound 1-1 (25 mg/kg) and compound 3-1 (25 mg/kg). The day of grouping was determined as d0. On d1, a single intragastric dose at a volume of 10 mL/kg was administered, and the animals were observed.
The calculation formula for tumor volume: Tumor volume (mm^3)=½×(a×b^2) (where a represents long diameter and b represents short diameter).
Relative tumor proliferation rate (T/C %) refers to the percentage of the relative tumor volume or tumor weight of the treatment and control groups at a certain time point. The calculation formula is as follows: T/C %=TRTV/CRTV×100% (TRTV: mean relative tumor volume (RTV) for treatment group; CRTV: mean RTV for vehicle control group; RTV=TVt/TV0, where TV0 is the tumor volume at grouping, TVt is the tumor volume after treatment).
Tumor growth inhibition rate (TGI %) is calculated according to the following formula: TGI %=(1−T/C)×100%. (T and C are the relative tumor volume (RTV) or tumor weight (TW) at a particular time point for the treatment and control groups, respectively).
The calculation formula for weight change rate (WCR) (%) is: WCR=(Wtt−Wt0)/Wt0×100%, where Wt0 is the body weight of the animal at grouping (i.e., d0), Wtt is the body weight of the animal at each measurement.
All experimental results are expressed as mean±SD (mean±standard deviation). The relative tumor volume of the treatment group was compared with that of the control group for any significant difference by T tests, wherein p<0.05 indicates a significant difference, and p<0.01 indicates a very significant difference.
A general note: A xenograft is tissue or cells of one species grown in another, often human tumour cells in immunodeficient mice.

The next data set concerns the target T1, BCL-2/BAK (Homo sapiens, UniProt P10415).
T1 construct: purchased Cisbio 63ADK000CB01PEG
As to the kind of experiment: Inhibitory activity for BCL-2/BAK binding (Cisbio BCL-2/BAK (BH3) binding assay kit). The method, then:
500 nM Tag1-BCL-2 protein stock solution and 20 μM Tag2-BAK protein stock solution were diluted to 5 nM and 120 nM respectively with dilution buffer in kit (name: BCL-2/BAK (BH3) BINDING ASSAY KITS, cat. No.: 63ADK000CB01PEG, from Cisbio). 5 μL of Tag1-BCL-2 protein diluent was added to each well, then test compounds dissolved with DMSO were added to the wells with a nanoliter pipettor, allowing the final compound concentrations to be 200 nM to 0.0488 nM (4-fold gradient for 7 concentrations in total). Blank control wells (without enzyme) and negative control wells (with enzyme, plus vehicle DMSO) were set, and 2 replicate wells were set. Finally, 5 μL of Tag2-BAK protein diluent was added to each well, and the mixture was mixed well by centrifugation and incubated at 25° C. for 15 min. 100× anti-Tag1-Eu^3+ and 100× anti-Tag2-XL665 were both diluted to 1× working concentration with the detection buffer in the kit. Anti-Tag1-Eu^3+ and anti-Tag2-XL665 were mixed well in a 1:1 ratio, and the mixture was added to wells at 5 μL/well, and incubated at 25° C. for 2 h or more. The plate was read using a PE Envision multi-functional microplate reader ([…], emission: 665 nm) and IC50 (shown in Table 2) was calculated by four-parameter fitting.

Another data set has as its target T2, BCL-XL/BAK (Homo sapiens, UniProt Q07817).
T2 construct: purchased Cisbio 63ADK000CB04PEG
The data set is described as follows: Inhibitory activity for BCL-XL/BAK binding (Cisbio BCL-XL/BAK (BH3) binding assay kit). The method, then: 300 nM Tag1-BCL-XL protein stock solution and 10 μM Tag2-BAK protein stock solution were diluted to 2 nM and 80 nM respectively with dilution buffer in kit (name: BCL-XL/BAK (BH3) BINDING ASSAY KITS, cat. No.: 63ADK000CB04PEG, from Cisbio). 5 μL of Tag1-BCL-XL protein diluent was added to each well, then different test compounds dissolved with DMSO were added to the wells with a nanoliter pipettor, allowing the final compound concentrations to be 2000 nM to 0.488 nM (4-fold gradient for 7 concentrations in total). Blank control wells (without enzyme) and negative control wells (with enzyme, plus vehicle DMSO) were set, and 2 replicate wells were set. Finally, 5 μL of Tag2-BAK protein diluent was added to each well, and the mixture was mixed well by centrifugation and incubated at 25° C. for 15 min. 100× anti-Tag1-Eu^3+ and 100× anti-Tag2-XL665 were both diluted to 1× working concentration with the detection buffer in the kit. Anti-Tag1-Eu^3+ and anti-Tag2-XL665 were mixed well in a 1:1 ratio, and the mixture was added to wells at 5 μL/well, and incubated at 25° C. for 2 h or more. The plate was read using a PE Envision multi-functional microplate reader ([…], emission: 665 nm) and IC50 (shown in Table 2) was calculated by four-parameter fitting.

T1 sequence (P10415 whole entry): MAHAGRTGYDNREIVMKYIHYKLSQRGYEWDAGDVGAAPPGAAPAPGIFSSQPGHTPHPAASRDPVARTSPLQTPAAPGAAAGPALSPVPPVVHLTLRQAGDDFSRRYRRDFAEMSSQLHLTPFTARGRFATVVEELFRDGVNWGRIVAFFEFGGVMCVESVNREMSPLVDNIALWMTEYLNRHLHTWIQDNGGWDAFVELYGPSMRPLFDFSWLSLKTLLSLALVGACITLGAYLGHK
T2 sequence (Q07817 whole entry): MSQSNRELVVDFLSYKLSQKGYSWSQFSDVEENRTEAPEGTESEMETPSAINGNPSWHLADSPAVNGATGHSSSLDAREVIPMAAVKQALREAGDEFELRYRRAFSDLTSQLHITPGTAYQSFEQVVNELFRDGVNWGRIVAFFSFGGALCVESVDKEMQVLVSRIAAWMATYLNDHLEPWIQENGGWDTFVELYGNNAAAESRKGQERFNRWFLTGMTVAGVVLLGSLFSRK

As a reminder, the IC50 is the midpoint of a concentration-inhibition curve. A high value points to weaker potency in that assay. Usually T/C stands for the result in the treated group divided by that in the control group, in per cent. A word on the TGI: it is how far tumour growth fell short of that in controls. A higher TGI goes with much slowing of growth. Take `Cc1cc(C(F)(F)F)ccc1C1=C(CN2CCN(c3ccc(C(=O)NS(=O)(=O)c4ccc(NCC5CCOCC5)c([N+](=O)[O-])c4)c(Oc4cnc5[nH]ccc5c4)c3)CC2)CCC(C)(C)C1` [Compound 1-1, 4-(4-{[2-(2-methyl-4-trifluoromethylphenyl)-4,4-dimethylcyclohex-1-enyl]methyl}-piperazin-1-yl)-N-({3-nitro-4-[(tetrahydro-2H-pyran-4-ylmethyl)amino]phenyl}sulfonyl)-2-(1H-pyrrolo[2,3-b]pyridin-5-yloxy)-benzamide]: in the data set with RS4;11 cells, the midpoint of inhibition, the IC50, lay at 3.9 nM. In data set [1], the “Relative tumor volume (mean ± SD)” value was 2.1 ± 0.6, the T/C turned out to be 40.4%, the TGI turned out to be 59.6% and the “Tumor volume (mean ± SD)” value was 350 ± 80 mm^3. Moreover, the “Weight change rate (mean ± SD)” value in data set [1] was 8.20 ± 3.58%.

The compound `Cc1cc(C(F)(F)F)ccc1C1=C(CN2CCN(c3ccc(C(=O)NS(=O)(=O)c4ccc(NC[C@@H]5COCCO5)c([N+](=O)[O-])c4)c(Oc4cnc5[nH]ccc5c4)c3)CC2)CCC(C)(C)C1` [Compound 2-1] yielded an IC50 in the data set with RS4;11 cells of 4.2 nM.

Compound `Cc1cc(C(F)(F)F)ccc1C1=C(CN2CCN(c3ccc(C(=O)NS(=O)(=O)c4ccc(NC[C@H]5COCCO5)c([N+](=O)[O-])c4)c(Oc4cnc5[nH]ccc5c4)c3)CC2)CCC(C)(C)C1` [Compound 3-1] came in with an IC50 on BCL-2/BAK of 1.49 nM. This compound also displayed an IC50 with RS4;11 cells of 1.9 nM. In data set [1], the “Relative tumor volume (mean ± SD)” value was 1.3 ± 0.8, the T/C came out at 25.0%, the TGI stood at 75.0% and the “Tumor volume (mean ± SD)” value was 213 ± 93 mm^3. The “Weight change rate (mean ± SD)” value in data set [1] was 5.61 ± 3.61%.

As for `COCC(=O)N1CCO[C@@H](CNc2ccc(S(=O)(=O)NC(=O)c3ccc(N4CCN(CC5=C(c6ccc(C(F)(F)F)cc6C)CC(C)(C)CC5)CC4)cc3Oc3cnc4[nH]ccc4c3)cc2[N+](=O)[O-])C1` [Compound 4-1], the IC50 came out at 0.7 nM on BCL-2/BAK and 5.4 nM with RS4;11 cells.

Regarding `Cc1cc(C(F)(F)F)ccc1C1=C(CN2CCN(c3ccc(C(=O)NS(=O)(=O)c4ccc(NC[C@H]5CCOC5)c([N+](=O)[O-])c4)c(Oc4cnc5[nH]ccc5c4)c3)CC2)CCC(C)(C)C1` [Compound 9-1, (R)-4-(4-{[2-(2-methyl-4-trifluoromethylphenyl)-4,4-dimethylcyclohex-1-enyl]methyl}-piperazin-1-yl)-N-({3-nitro-4-[((tetrahydrofuran-3-yl)methyl)amino]phenyl}sulfonyl)-2-(1H-pyrrolo[2,3-b]pyridin-5-yloxy)-benzamide], the half-inhibitory concentration (IC50) at BCL-XL/BAK amounted to 219 nM; on BCL-2/BAK, 1.26 nM.

`Cc1cc(C(F)(F)F)ccc1C1=C(CN2CCN(c3ccc(C(=O)NS(=O)(=O)c4ccc(NC[C@@H]5CCCO5)c([N+](=O)[O-])c4)c(Oc4cnc5[nH]ccc5c4)c3)CC2)CCC(C)(C)C1` [Compound 11-1, (S)-4-(4-{[2-(2-methyl-4-trifluoromethylphenyl)-4,4-dimethylcyclohex-1-enyl]methyl}-piperazin-1-yl)-N-({3-nitro-4-[((tetrahydrofuran-2-yl)methyl)amino]phenyl}sulfonyl)-2-(1H-pyrrolo[2,3-b]pyridin-5-yloxy)-benzamide] registered an IC50 on BCL-2/BAK of 1.79 nM.

On to `CC(=O)N1CCO[C@@H](CNc2ccc(S(=O)(=O)NC(=O)c3ccc(N4CCN(CC5=C(c6ccc(C(F)(F)F)cc6C)CC(C)(C)CC5)CC4)cc3Oc3cnc4[nH]ccc4c3)cc2[N+](=O)[O-])C1` [Compound 18-1, (S)-4-(4-{[2-(2-methyl-4-trifluoromethylphenyl)-4,4-dimethylcyclohex-1-enyl]methyl}-piperazin-1-yl)-N-({3-nitro-4-[((4-acetylmorpholin-2-yl)methyl)amino]phenyl}sulfonyl)-2-(1H-pyrrolo[2,3-b]pyridin-5-yloxy)-benzamide], for which the half-maximal inhibitory concentration (IC50) on BCL-2/BAK came out at 1.54 nM; in the data set with RS4;11 cells, 5.5 nM.

On to `CC(=O)N1CCO[C@H](CNc2ccc(S(=O)(=O)NC(=O)c3ccc(N4CCN(CC5=C(c6ccc(C(F)(F)F)cc6C)CC(C)(C)CC5)CC4)cc3Oc3cnc4[nH]ccc4c3)cc2[N+](=O)[O-])C1` [Compound 19-1, (R)-4-(4-{[2-(2-methyl-4-trifluoromethylphenyl)-4,4-dimethylcyclohex-1-enyl]methyl}-piperazin-1-yl)-N-({3-nitro-4-[((4-acetylmorpholin-2-yl)methyl)amino]phenyl}sulfonyl)-2-(1H-pyrrolo[2,3-b]pyridin-5-yloxy)-benzamide], for which the figures for the IC50 on BCL-2/BAK and in the data set on RS4;11 cells were 0.97 nM and 3.4 nM, respectively.

Take `Cc1cc(C(F)(F)F)ccc1C1=C(CN2CCN(c3ccc(C(=O)NS(=O)(=O)c4ccc(NC[C@H]5CN(C(=O)C(C)C)CCO5)c([N+](=O)[O-])c4)c(Oc4cnc5[nH]ccc5c4)c3)CC2)CCC(C)(C)C1` [Compound 20-1, (S)-4-(4-{[2-(2-methyl-4-trifluoromethylphenyl)-4,4-dimethylcyclohex-1-enyl]methyl}-piperazin-1-yl)-N-({3-nitro-4-[((4-isobutyrylmorpholin-2-yl)methyl)amino]phenyl}sulfonyl)-2-(1H-pyrrolo[2,3-b]pyridin-5-yloxy)-benzamide]: the IC50 on BCL-2/BAK came out at 2.06 nM.

As for `Cc1cc(C(F)(F)F)ccc1C1=C(CN2CCN(c3ccc(C(=O)NS(=O)(=O)c4ccc(NC[C@@H]5CN(S(C)(=O)=O)CCO5)c([N+](=O)[O-])c4)c(Oc4cnc5[nH]ccc5c4)c3)CC2)CCC(C)(C)C1` [Compound 23-1, (R)-4-(4-{[2-(2-methyl-4-trifluoromethylphenyl)-4,4-dimethylcyclohex-1-enyl]methyl}-piperazin-1-yl)-N-({3-nitro-4-[((4-(methylsulfonyl)morpholin-2-yl)methyl)amino]phenyl}sulfonyl)-2-(1H-pyrrolo[2,3-b]pyridin-5-yloxy)-benzamide], the concentration for half-maximal inhibition (IC50) was 1.1 nM at BCL-2/BAK and 2.5 nM with RS4;11 cells.
